Test results: patent US20240299345A1, “GINKGOLIDE B AND ITS DERIVATIVES FOR INHIBITING AND/OR REVERSING AGING” (CHINA MEDICAL UNIVERSITY, priority 2023, published 2024)

Experiments:
[1] = tested on: aged M1 macrophages, MPD C2C12, MPD C2C12-derived myotubes; experiment: Inflammatory cytokine expression in aged cells under culture conditions; assay type: cell-based, mouse; conditions: GB 5 mg/L for 48 hr
From the text: C2C12 myoblast cell line (#CRL-1772TM, ATCC, Manassas, VA, USA) was expanded in high-glucose DMEM (#D7777, Sigma-Aldrich) with 10% FBS (#10270106, Gibco, Waltham, MA, USA) and 1% PSG (#10378016, Gibco). Passage 15-20 C2C12 was considered as multiple population doublings C2C12. Subconfluent C2C12 was differentiated to myotubes by myogenic induction medium, high-glucose DMEM (Sigma-Aldrich) containing 2% horse scrum (#16050122, Gibco) for 5 days. Aged bone-marrow monocytes were isolated from 20-month-old female C57BL/6 mice and then differentiated into macrophages in RPMI 1640 (#11875085, Gibco) supplemented with 10% FBS and 20 ng/ml M-CSF (#315-02, PeproTech, Cranbury, NJ, USA). Inflammatory MI macrophages were induced by 45 ng/mL IFN-γ (#485-MI-100, R&D Systems, Minneapolis, MN, USA) +100 ng/mL LPS (#L4391, Sigma-Aldrich). The indicative cells were then treated with or without GB (5 mg/L) for 48 hr. […]
(§1) RNAs were purified by using the TRIzol® (#15596018, Invitrogen) and chloroform method (#C7559, Sigma-Aldrich) and reversed transcribed using High-Capacity cDNA Reverse Transcription Kit (#4368814, Applied Biosystems, Foster City, CA, USA). The quantitative RT-PCR was conducted with universal probe system (Roche Life Science, Indianapolis, IN, USA) by using a QuantStudio™ 7 Flex Real-Time PCR System (Applied Biosystems) and was normalized by the expression of GAPDH.

[2] = tested on: 20-month-old aged female C57BL/6 mice; experiment: Aging-related skeletal muscle wasting in aged mice; assay type: in vivo, mouse
Protocol: RIPA buffer (#ab156034, Abcam) containing 1X protease/phosphatase inhibitor (#1861281, Thermo Fisher Scientific) was used to lyse samples. Protein content was measured by BCA Protein Assay Kit (#23225, Thermo Fisher Scientific). Samples were loaded and separated in polyacrylamide gels and then transferred to PVDF membranes (#IPVH00010, Merck Millipore, Massachusetts, USA). The membranes were incubated with 5% BSA at room temperature for one hour and then incubated with primary antibodies overnight at 4° C., and then incubated with HRP-conjugated secondary antibodies (#SA00001-1, #SA100002-1, Proteintech, Rosemont, IL, USA) for one hour at room temperature. Signals were detected by the chemiluminescent substrate (#34095, Thermo Fisher Scientific) and were acquired by the ChemiDoc MP imaging system (Bio-Rad, Hercules, CA, USA).
Serum was collected by cardiac puncture upon sacrifice.
as §1
To investigate whether GB improves healthspan, we administered GB to 20-month-old aged mice, equivalent to 70-80-year-old humans, which is more relevant to potential clinical applications than intervention starting from young adulthood (Wang, S., Lai, X., Deng, Y. & Song, Y. Correlation between mouse age and human age in anti-tumor research: Significance and method establishment. Life Sci 242, 117242, doi: 10.1016/j.lfs.2019.117242 (2020)). After GB administration for two months, we assessed the healthspan domains in terms of sarcopenia, physical activity, metabolic health, frailty index, and inflammation (FIG. 2A) according to the criteria in clinical practice (Shamliyan, T., Talley, K. M., Ramakrishnan, R. & Kane, R. L. Association of frailty with survival: a systematic literature review. Ageing Res Rev 12, 719-736, doi: 10.1016/j.arr.2012.03.001 (2013)). As expected, circulating osteocalcin levels were decreased in aged mice, while GB administration increased osteocalcin levels (FIG. 2B, p<0.0001) toward the levels of those in young mice. […] In line with muscle loss, aging led to a decreased in total protein content (FIG. 2H, p<0.0001) in skeletal muscle with upregulation of muscle atrophy markers, Fbxo32 and Trim63, at transcript (FIG. 2K, p<0.0001 and=0.0005, respectively) and protein levels. (FIG. 2L, p=0.0182 and 0.0003, respectively). […] GB reversed the infiltration of adipose-like tissues by aging (FIGS. 2D and 2G, p=0.0012). […] GB administration reversed aging-related muscle wasting (FIG. 2K).

[3] = tested on: gastrocnemius (GA) muscle; experiment: Ex vivo muscle contractility and fatigability of GA muscle from treated aged mice; assay type: in vivo, mouse; conditions: GB 2 months
Protocol: For the ex vivo muscle function test, the isolated right side gastrocnemius (GA) muscle were incubated in Krebs buffer at room temperature and with 95% O2 and 5% CO2 for five minutes. GA muscle received stimuli three times under the optimal length to evaluate twitch force. Three 150 Hz continuous stimuli were given to evaluate tetanic force. Twitch force and tetanic force were normalized to the cross-section area (CSA) of GA muscle. GA muscle fatigue was measured by repeated isometric tetanic contraction every 5 seconds for a total of 60 contractions. Five minutes and ten minutes after fatigue protocol, the maximal tetanic force was measured to assess post-fatigue recovery. All of the results were recorded with the Dynamic Muscle Control system (DMC v5.4; Aurora Scientific, Inc.), and results were analyzed by the Dynamic Muscle Analysis system (DMA v3.2; Aurora Scientific, Inc.).

[4] = tested on: H2O2-induced senescent human MSCs; experiment: H2O2-induced senescence in human MSCs; assay type: cell-based; conditions: GB 5 mg/L
From the text: C2C12 myoblast cell line (#CRL-1772TM, ATCC, Manassas, VA, USA) was expanded in high-glucose DMEM (#D7777, Sigma-Aldrich) with 10% FBS (#10270106, Gibco, Waltham, MA, USA) and 1% PSG (#10378016, Gibco). Passage 15-20 C2C12 was considered as multiple population doublings C2C12. Subconfluent C2C12 was differentiated to myotubes by myogenic induction medium, high-glucose DMEM (Sigma-Aldrich) containing 2% horse scrum (#16050122, Gibco) for 5 days. Aged bone-marrow monocytes were isolated from 20-month-old female C57BL/6 mice and then differentiated into macrophages in RPMI 1640 (#11875085, Gibco) supplemented with 10% FBS and 20 ng/ml M-CSF (#315-02, PeproTech, Cranbury, NJ, USA). Inflammatory MI macrophages were induced by 45 ng/mL IFN-γ (#485-MI-100, R&D Systems, Minneapolis, MN, USA) +100 ng/mL LPS (#L4391, Sigma-Aldrich). The indicative cells were then treated with or without GB (5 mg/L) for 48 hr. Commercial human mesenchymal stem cells (MSCs)40 were cultured in MSC maintenance medium consisting of IMDM, 10% FBS (#10270106, Gibco), 10 ng/ml bFGF (#233-FB, R&D Systems) and 1% PSG (#10378016, Gibco). To induce senescence, we treated cells at approximately 50% confluence with 200 μM H2O2 for 2 hr and then washed cells by PBS two times to remove H202. The cells were treated with GB (5 mg/L) or vehicle in fresh growth medium and subjected to the subsequent experiments at indicative time point.
Cell viability was measured by a CCK-8 kit (#ab228554, Abcam), and cell proliferation was determined by manually cell counting with hemocytometer. Senescence-associated β-galactosidase activity was determined by senescence-associated β-galactosidase staining kit (#9860, Cell Signaling Technology, Danvers, Massachusetts, USA) according to the manufacturer's instructions. Senescence-associated heterochromatin foci were visualized by DAPI staining.
as §1

For `CC1C(=O)OC2C(O)C34C5CC(C(C)(C)C)C36C(OC(=O)C6O)OC4(C(=O)O5)C12O` (stereo not shown) [GB, Ginkgolide B], the “inflammatory cytokines in aged cells under culture conditions” value [1] was “downregulated”, the circulating osteocalcin levels ([2]; aged (20-month-old) female mice, GB 12 mg/kg daily oral 2 months vs vehicle-aged, p<0.0001) was “increased” and the skeletal muscle-to-body ratio ([2]; aged mice, GB 12 mg/kg daily oral 2 months vs vehicle-aged) was “significantly increased”. The “infiltration of adipose-like tissues by aging” value ([2]; aged mice, GB 12 mg/kg daily oral 2 months, p=0.0012) was “reversed”, the “myofiber CSA” value ([2]; aged mice, quadriceps, GB 12 mg/kg daily oral 2 months vs vehicle-aged, p=0.0032) was “significantly increased” and the “total protein content in aged skeletal muscle” value ([2]; gastrocnemius, aged mice, GB 12 mg/kg daily oral 2 months, p<0.0001) was “increased”. The “expression level of Trim63 (mRNA and protein)” value ([2]; gastrocnemius, aged mice, GB 2 months, p=0.0039 and 0.0003) was “significant downregulation”, the “expression level of Fbxo32 (mRNA and protein)” value ([2]; gastrocnemius, aged mice, GB 2 months, p=0.0078 and 0.0182) was “significant downregulation” and the absolute tetanic force [3] was “significantly enhanced”. The absolute twitch force [3] was “significantly enhanced”, the “time to maximum force” value ([3]; p=0.0003) was “reversed the increased time to maximum force to the youth levels” and the “specific force (normalized to muscle mass)” value ([3]; p=0.1161 and 0.1935) was “modest increased”. The “fatigue resistance or recovery rate” value ([3]; p=0.99 at five and ten minutes) was “did not alter”, the cellular morphology [4] was “restored the spindle sharp from flattened and enlarged morphology” and the “expression of senescence markers” value [4] was “reduced”. The proliferation [4] was “promoted”, the “senescence-associated heterochromatin foci and nucleus size” value [4] was “reduced” and the “senescence-associated β-galactosidase (SA-β-Gal) staining” value ([4]; p=0.0007) was “reduced”. The “cellular viability (CCK8)” value ([4]; p=0.0026) was “promoted”.
